Legend:
[1] = test system: other bromodomain-containing proteins from each arm of the phylogeny tree; experiment: interaction with other bromodomain-containing proteins; format: binding; settings: selectivity
[2] = test system: panel of 38 unrelated proteins; experiment: activity towards a panel of unrelated proteins; settings: selectivity
[3] = test system: bone marrow-derived macrophages (BMDMs); experiment: LPS-inducible gene expression in macrophages; format: cell-based, C57BL/6 mice; settings: for number of LPS-inducible genes down-regulated: I-BET 1 μM, >2 fold
[4] = test system: bone marrow-derived macrophages (BMDMs); experiment: gene transcription in BMDMs without LPS stimulation; format: cell-based, C57BL/6 mice; settings: absence of LPS stimulation
[5] = test system: bone marrow-derived macrophages (BMDMs); experiment: LPS-induced signalling; format: cell-based, C57BL/6 mice; settings: I-BET treated cells
[6] = test system: bone marrow-derived macrophages (BMDMs); experiment: viability of BMDMs; format: cell-based, C57BL/6 mice
pCAF = pCAF (Homo sapiens, UniProt Q92831); experiment: histone acetyltransferase; format: biochemical
p300 = p300 (Homo sapiens, UniProt Q09472); experiment: histone acetyltransferase; format: biochemical
GCN5 = GCN5 (Homo sapiens, UniProt Q92830); experiment: histone acetyltransferase; format: biochemical
CBP = CBP (Homo sapiens, UniProt Q92793); experiment: histone acetyltransferase; format: biochemical
[7] = test system: il6 promoter in bone marrow-derived macrophages; experiment: ChIP of epigenetic marks at gene promoters in LPS-stimulated macrophages; format: cell-based, C57BL/6 mice; settings: I-BET 5 μM
[8] = test system: bone marrow-derived macrophages (BMDMs); format: cell-based, C57BL/6 mice; settings: BMDM treatment with the HDAC inhibitor

Sequence of p300 (Q09472 whole entry, species assumed): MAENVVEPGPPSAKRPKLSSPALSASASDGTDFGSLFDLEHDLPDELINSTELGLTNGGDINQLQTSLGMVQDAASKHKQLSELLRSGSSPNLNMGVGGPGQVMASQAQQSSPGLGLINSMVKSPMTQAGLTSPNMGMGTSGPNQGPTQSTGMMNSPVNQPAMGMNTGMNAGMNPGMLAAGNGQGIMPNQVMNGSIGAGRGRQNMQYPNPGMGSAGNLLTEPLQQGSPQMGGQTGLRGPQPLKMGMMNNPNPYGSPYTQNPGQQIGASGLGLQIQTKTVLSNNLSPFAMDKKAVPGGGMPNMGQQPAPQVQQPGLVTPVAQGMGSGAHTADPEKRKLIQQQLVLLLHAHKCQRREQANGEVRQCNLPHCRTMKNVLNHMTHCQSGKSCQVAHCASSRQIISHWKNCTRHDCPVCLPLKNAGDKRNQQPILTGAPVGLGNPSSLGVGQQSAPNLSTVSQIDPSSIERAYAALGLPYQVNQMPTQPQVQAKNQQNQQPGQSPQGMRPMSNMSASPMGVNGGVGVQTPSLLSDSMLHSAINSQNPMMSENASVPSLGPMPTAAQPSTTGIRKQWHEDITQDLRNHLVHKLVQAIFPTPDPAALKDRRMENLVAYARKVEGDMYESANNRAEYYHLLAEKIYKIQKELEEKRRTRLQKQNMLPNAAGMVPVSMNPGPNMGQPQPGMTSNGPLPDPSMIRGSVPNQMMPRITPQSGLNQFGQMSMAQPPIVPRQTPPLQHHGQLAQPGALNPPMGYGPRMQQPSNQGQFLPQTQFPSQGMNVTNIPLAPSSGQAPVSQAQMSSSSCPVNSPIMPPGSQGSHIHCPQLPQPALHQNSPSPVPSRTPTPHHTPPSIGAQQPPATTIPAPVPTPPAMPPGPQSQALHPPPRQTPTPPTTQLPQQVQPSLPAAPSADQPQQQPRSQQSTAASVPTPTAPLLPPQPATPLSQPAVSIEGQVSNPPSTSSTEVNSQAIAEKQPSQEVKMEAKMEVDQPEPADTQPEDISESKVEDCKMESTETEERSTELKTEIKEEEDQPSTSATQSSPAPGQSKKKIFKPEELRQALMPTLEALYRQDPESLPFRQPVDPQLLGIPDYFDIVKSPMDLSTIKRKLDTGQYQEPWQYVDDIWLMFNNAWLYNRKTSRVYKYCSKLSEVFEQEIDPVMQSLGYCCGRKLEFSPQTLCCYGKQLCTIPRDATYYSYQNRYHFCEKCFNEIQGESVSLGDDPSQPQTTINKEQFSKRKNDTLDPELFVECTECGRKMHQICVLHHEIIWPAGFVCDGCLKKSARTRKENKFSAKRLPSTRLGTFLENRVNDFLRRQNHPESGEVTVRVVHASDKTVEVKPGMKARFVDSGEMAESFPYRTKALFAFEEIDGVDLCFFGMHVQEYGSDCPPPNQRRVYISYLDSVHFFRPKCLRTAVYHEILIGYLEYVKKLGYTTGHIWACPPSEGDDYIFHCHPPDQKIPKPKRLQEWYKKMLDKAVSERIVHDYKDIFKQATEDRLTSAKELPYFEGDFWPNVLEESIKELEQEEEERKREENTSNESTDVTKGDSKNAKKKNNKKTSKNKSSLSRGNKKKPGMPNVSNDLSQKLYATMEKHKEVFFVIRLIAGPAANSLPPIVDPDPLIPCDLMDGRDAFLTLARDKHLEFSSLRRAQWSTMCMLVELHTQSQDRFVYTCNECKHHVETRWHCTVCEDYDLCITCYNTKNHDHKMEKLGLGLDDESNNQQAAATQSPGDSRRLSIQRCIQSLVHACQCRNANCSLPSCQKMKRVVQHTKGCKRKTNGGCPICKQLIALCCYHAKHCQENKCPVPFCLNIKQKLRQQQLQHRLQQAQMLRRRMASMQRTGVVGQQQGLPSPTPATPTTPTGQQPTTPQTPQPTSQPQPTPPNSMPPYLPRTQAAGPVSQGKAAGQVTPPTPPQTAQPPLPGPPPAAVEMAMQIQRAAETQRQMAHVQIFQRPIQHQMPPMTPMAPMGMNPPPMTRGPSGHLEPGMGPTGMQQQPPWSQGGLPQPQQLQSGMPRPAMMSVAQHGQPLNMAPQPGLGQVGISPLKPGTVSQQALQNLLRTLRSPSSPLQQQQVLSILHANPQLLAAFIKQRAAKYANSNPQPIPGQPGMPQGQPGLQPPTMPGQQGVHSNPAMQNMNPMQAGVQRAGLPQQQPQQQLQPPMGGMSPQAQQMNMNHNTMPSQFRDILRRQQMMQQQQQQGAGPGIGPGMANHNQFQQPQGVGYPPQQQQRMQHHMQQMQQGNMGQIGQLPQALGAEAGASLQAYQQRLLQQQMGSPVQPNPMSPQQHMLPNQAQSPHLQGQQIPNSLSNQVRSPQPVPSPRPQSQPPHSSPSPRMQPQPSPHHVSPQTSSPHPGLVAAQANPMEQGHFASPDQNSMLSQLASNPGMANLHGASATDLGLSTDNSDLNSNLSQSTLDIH
Sequence of GCN5 (Q92830 whole entry, species assumed): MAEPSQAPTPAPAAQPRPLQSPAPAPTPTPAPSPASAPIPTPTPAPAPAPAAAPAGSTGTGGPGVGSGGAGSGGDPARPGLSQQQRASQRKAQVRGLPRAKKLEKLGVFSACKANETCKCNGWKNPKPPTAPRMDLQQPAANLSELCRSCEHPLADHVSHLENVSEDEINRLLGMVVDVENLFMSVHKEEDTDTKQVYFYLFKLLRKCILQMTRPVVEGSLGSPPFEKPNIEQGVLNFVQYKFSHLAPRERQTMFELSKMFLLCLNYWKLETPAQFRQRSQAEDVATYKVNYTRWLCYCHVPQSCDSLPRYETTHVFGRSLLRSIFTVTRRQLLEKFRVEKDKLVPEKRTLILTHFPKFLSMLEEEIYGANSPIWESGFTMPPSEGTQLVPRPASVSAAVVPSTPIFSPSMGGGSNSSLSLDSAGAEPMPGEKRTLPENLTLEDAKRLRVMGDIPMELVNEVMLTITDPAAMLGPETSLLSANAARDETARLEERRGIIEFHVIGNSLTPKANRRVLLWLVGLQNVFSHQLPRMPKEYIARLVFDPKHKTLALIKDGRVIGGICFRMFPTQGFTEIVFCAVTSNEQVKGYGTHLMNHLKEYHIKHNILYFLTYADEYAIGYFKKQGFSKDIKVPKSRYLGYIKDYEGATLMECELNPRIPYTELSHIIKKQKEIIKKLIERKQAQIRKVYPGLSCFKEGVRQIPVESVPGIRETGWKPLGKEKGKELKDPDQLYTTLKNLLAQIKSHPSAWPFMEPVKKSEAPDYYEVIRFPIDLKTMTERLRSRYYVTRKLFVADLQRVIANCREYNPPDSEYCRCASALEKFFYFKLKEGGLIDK
Sequence of pCAF (Q92831 whole entry, species assumed): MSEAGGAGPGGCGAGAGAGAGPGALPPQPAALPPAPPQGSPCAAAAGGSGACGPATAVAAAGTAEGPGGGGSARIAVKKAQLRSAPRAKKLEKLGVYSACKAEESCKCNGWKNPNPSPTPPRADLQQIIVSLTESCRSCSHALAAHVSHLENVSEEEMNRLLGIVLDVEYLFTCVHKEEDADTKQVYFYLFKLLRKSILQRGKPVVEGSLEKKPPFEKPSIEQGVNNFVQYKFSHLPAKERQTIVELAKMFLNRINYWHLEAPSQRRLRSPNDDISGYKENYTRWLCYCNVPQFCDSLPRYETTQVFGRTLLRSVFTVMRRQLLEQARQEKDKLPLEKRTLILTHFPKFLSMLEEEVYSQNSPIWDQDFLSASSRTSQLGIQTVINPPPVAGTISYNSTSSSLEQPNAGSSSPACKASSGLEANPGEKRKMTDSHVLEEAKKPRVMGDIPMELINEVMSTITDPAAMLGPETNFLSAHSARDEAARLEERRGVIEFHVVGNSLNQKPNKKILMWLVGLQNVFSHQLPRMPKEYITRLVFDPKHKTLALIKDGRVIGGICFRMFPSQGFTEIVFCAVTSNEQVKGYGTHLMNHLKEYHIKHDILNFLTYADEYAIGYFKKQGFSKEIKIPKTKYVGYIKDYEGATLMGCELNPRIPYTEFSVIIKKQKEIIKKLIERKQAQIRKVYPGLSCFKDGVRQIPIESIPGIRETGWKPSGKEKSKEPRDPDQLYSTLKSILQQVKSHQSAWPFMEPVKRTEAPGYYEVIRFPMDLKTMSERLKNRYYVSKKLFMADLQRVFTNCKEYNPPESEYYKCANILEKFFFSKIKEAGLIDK

Structure (SMILES)	interaction with other bromodomain-containing proteins [1]	activity towards a panel of 38 unrelated proteins [2]	number of LPS-inducible genes down-regulated ([3]; 1 hour after LPS)	number of LPS-inducible genes down-regulated ([3]; 4 hours after LPS)	expression of tnf, ccl2-5, cxcl1/2 ([3]; LPS-stimulated BMDMs)	effect on gene transcription [4]	LPS-induced ERK phosphorylation and IκBα degradation [5]	effect on viability of BMDMs [6]	suppression of HAT activity (pCAF)	suppression of HAT activity (p300)	suppression of HAT activity (GCN5)	suppression of HAT activity (CBP)	BET recruitment at il6 promoter [7]	conversion of sI-BET genes into naI-BET genes [8]
CCNC(=O)C[C@@H]1N=C(c2ccc(Cl)cc2)c2cc(OC)ccc2-n2c(C)nnc21 [I-BET]	did not interact	no activity	38	151	not affected	marginal effect	unaltered pattern	no effect	inability of I-BET to suppress the activity	inability of I-BET to suppress the activity	inability of I-BET to suppress the activity	inability of I-BET to suppress the activity	marked reduction	
CC(/C=C/C(=O)NO)=C\[C@@H](C)C(=O)c1ccc(N(C)C)cc1 [trichostatin A]														able to “convert” sI-BET into naI-BET genes
